The results in this text go back to patent US20190048052A1, “ANTI-MICROBIAL PEPTIDES AND COATINGS” (Board of Regents of the University of Nebraska, priority 2016, published 2019).

≈ marks a conversion by molar mass, not a printed value. Where two headings read alike, the source gives them in different places. Non-standard residues stand in square brackets, D forms with d. Residues, ends and D or L forms follow the SMILES beside them.

One data set deals with T1, S. aureus V8 protease (Staphylococcus aureus, UniProt P0C1U8).
T1 construct: purchased Sigma or Fisher
T1 sequence (P0C1U8 69-336): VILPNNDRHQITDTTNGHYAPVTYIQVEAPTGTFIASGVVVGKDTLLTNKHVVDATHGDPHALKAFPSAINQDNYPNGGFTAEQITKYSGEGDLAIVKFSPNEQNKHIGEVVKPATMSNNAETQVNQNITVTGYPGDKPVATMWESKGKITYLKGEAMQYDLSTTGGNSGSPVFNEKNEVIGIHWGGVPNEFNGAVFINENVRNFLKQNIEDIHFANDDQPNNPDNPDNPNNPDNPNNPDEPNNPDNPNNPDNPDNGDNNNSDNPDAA
It is filed as in vitro ADME. The settings on record: peptide:protease 40:1, 24 hours, 37° C. As to the method: (§1) When degraded, no peptide band could be detected on a 5% stacking/18% resolving tricine gel after 2-4 hours incubation at 37° C. Briefly, a solution (100 μL) containing 250 μM peptide and 6.25 μM protease (Sigma or Fisher) in 10 mM PBS buffer (pH 8) was incubated at 37° C. (peptide/protease molar ratio, 40:1). Aliquots (10 μL) of the reaction solutions were taken at 0, 6, and 24 hours and immediately mixed with 10 μL of 2× SDS loading buffer followed by boiling for 5 minutes to stop the reaction. […] After electrophoresis, the gel was stained by Brilliant Blue R-250 (Fisher) and destained to view the peptide bands.

The next data set concerns the target T2, proteinase K (Parengyodontium album, UniProt P06873).
T2 construct: purchased Sigma or Fisher
The data set is described as follows: Peptide stability to proteases (SDS-PAGE). It is filed as in vitro ADME, fungal. The settings on record: peptide:protease 40:1, 24 hours, 37° C. As to the method: as §1

Data set [1] concerns S. aureus USA300. Type of data set: cell-based, Staphylococcus aureus. As to the method: The minimal bactericidal concentration (MBC) was determined by plating 50 μl of the content in the clear wells of the above MIC assays. MBC was determined on the petri dishes without bacterial colony formation after overnight growth (Wang et al. (2012) Biochemistry 51:653-664).
Data set [2] deals with S. aureus USA300. Type of data set: cell-based, Staphylococcus aureus. As to the method:
(§2) The bacterial strains used here included Gram-positive bacteria Staphylococcus aureus USA300 LAC, Staphylococcus epidermidis 1457, Bacillus subtilis 168, and Gram-negative Escherichia coli K12. Clinical strains of S. aureus, including Mu50, UAMS-1 and Newman, were also evaluated.
(§3) The antimicrobial activity of peptides was evaluated using a standard broth microdilution protocol (Wang, G. (2008) J. Biol. Chem., 283:32637-32643). In brief, exponential phase bacteria at 10^6 CFU were incubated with serially diluted peptides overnight for ˜20 hours at 37° C. The plates were read on a ChroMate® 4300 Microplate Reader at 630 nm (GMI, Ramsey, Minn.). […] In addition, the effects of human serum (up to 10%), pH (6.8, 7.4 and 8.0) and 150 mM sodium chloride (NaCl) on MICs against S. aureus USA300 were also evaluated (Mishra et al. (2015) RSC Advances 5:59758-59769).
The source holds these as a separate data set.

A further data set concerns B. subtilis 168. It is filed as cell-based, Bacillus subtilis. As to the method:
as §2, §3

Another data set has as its system E. coli K12. Type of data set: cell-based, Escherichia coli. As to the method: as §2, §3
For the next data set, the system named is S. epidermidis 1457. Type of data set: cell-based, Staphylococcus epidermidis. As to the method: as §2, §3
Another data set deals with C. tropicalis ATCC 13803. Type of data set: cell-based, Candida tropicalis. The settings on record: ATCC 13803, 48 h. As to the method:
(§4) Fungal strains used in this study include Candida albicans ATCC 10231, C. glabrata ATCC 2001 and C. tropicalis ATCC 13803. The fungi were grown in Remel Dex broth (Thermo Fisher Scientific, KS). Antifungal assays were conducted essentially as described for antibacterial assays above, except for a higher starting density at an OD600 0.02 and a longer incubation time of ˜48 hours prior to microplate reading (Mishra et al. (2015) RSC Advances 5:59758-59769).

A further data set relates to C. glabrata ATCC 2001. It is filed as cell-based, Candida glabrata. The settings on record: ATCC 2001, 48 h. As to the method:
as §4

A further data set concerns S. aureus UAMS-1. It is filed as cell-based, Staphylococcus aureus. As to the method: as §2, §3
The test system of another data set is S. aureus Mu50. It is filed as cell-based, Staphylococcus aureus. As to the method:
as §2, §3

The next data set has as its system S. aureus Newman. Type of data set: cell-based, Staphylococcus aureus. As to the method:
as §2, §3

For data set [3], the system named is Candida albicans ATCC 10231. Type of data set: cell-based. The settings on record: ATCC 10231, 48 h. As to the method:
as §4

Data set [4] can be described thus: MTS cytotoxicity assay. It is filed as cell-based. The settings on record: human, HeLa CCL-2 cells. As to the method: (§5) HeLa CCL-2 epithelial adenocarcinoma cells from American Type Culture Collection (ATCC) were maintained in DMEM high glucose media with 4 mM L-glutamine (NyClone) and 100 U/mL penicillin, 100 μg/mL streptomycin (pen/strep) (Life Technologies), and 10% (v/v) inactivated fetal bovine serum (FBS) (NyClone). Cells were grown in 5% CO2 at 37° C. and were detached from the culturing dish at 80% confluency using 0.025% trypsin-EDTA (NyClone) treatment. Peptide influence on the cell viability was estimated by using the MTS assay according to the manufacturer's protocol (MTS, CellTiter96® AQ One Solution Cell Proliferation Assay, Promega) with minor modifications and as described elsewhere (Mishra et al. (2015) RSC Advances 5:59758-59769). In short, cells were cultured in flat bottomed 96 well microtiter plates (Corning Life Science) at a seeding density of 20,000 cells/well. At confluence ˜100% achieved after 20-24 hours of cultivation, the cells were washed twice with 100 μL Dulbecco's Phosphate Buffered Saline (Life Technologies). Further, 90 μL of DMEM media with 10% FBS, pen/step was added before exposure to 10 μL of the peptide solution in the concentration range 12.5-100 μM. Plates were incubated at 37° C. After 1 hour, 10 μL MTS, CellTiter96® was added. Plates were further incubated for another 2 hours at 37° C. and finally, the absorbance was measured on ChroMate® reader (Awareness Technology) at 492 nm. Culture medium and 0.2% SDS were used as negative and positive controls, respectively.
In general terms: Tetrazolium dyes change colour on reduction, which living cells bring about.

A short description of data set [5]: MTS cytotoxicity assay. It is filed as cell-based. The settings on record: human. As to the method:
as §5
Human skin HaCaT (immortalized keratinocyte from AddexBio, T0020001) and kidney HEK293 cells were also cultivated for cytotoxicity evaluation of the peptides in a similar manner.

Data set [6] relates to S. aureus USA300. The data set is described as follows: Propidium iodide membrane permeation. It is filed as cell-based, Staphylococcus aureus. As to the method:
Fluorescence spectroscopy was also used to follow bacterial killing. In brief, a serially diluted 10× peptide (10 μL) was made in 96-well coming COSTAR microtiter plates. Propidium iodide (2 μL) was added at 50 μM to each well which was finally incubated with S. aureus USA300 bacteria (88 μL at a final OD600 ˜0.1) with continuous shaking at 100 rpm, 37° C. in a FLUOstar® Omega (BMG LABTECH Inc, NC) microplate reader. The plates were read every 5 minutes for a total duration of 2 hours with excitation and emission wavelengths at 584 nm and 620 nm respectively. Plots were made using averaged readings from duplicated experiments after subtraction of the media control.

The next data set can be described thus: Hemolytic assay. Type of data set: cell-based. The note with it: red blood cells, hemolysis. As to the method:
Hemolytic analysis of selected peptides was performed using an established protocol (Mishra et al. (2015) RSC Advances 5:59758-59769). Briefly, human blood cells (UNMC Blood Bank) were washed three times with phosphate buffer saline (PBS) and diluted to a 2% solution. After peptide treatment, incubation at 37° C. for one hour, and centrifugation at 13,000 rpm, aliquots of the supernatant were transferred to a fresh 96-well microplate. To assess peptide cytotoxicity, the amount of hemoglobin released was measured at 545 nm. The percent lysis was calculated by assuming 100% release when human blood cells were treated with 1% TRITON™ X-100, and 0% release when incubated with PBS buffer. The hemolytic assays using chicken, bovine, and porcine blood cells (Lampire Biological Laboratories, Inc.) were performed in the same manner.

T2 sequence (P06873 106-384): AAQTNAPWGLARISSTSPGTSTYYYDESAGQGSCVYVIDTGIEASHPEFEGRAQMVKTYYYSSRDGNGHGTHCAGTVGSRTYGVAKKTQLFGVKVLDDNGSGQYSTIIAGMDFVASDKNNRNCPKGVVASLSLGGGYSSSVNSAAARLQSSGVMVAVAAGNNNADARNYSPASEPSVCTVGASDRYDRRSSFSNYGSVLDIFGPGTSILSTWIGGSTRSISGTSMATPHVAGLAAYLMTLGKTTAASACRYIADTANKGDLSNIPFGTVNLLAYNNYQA

Turning to `CC[C@@H](C)[C@@H](NC(=O)[C@@H](CCCCN)NC(=O)[C@@H](CCCNC(=N)N)NC(=O)[C@@H](CC(C)C)NC(=O)[C@@H](Cc1c[nH]c2ccccc12)NC(=O)[C@@H](Cc1c[nH]c2ccccc12)NC(=O)[C@H](N)Cc1c[nH]c2ccccc12)C(=O)N[C@H](Cc1c[nH]c2ccccc12)C(N)=O` [TetraF2W-RK-d, wwwlrkiw] (H-[dW][dW][dW][dL][dR][dK][dI][dW]-NH2; N-terminus and C-terminus assumed), the “stability to S. aureus V8 protease” value at S. aureus V8 protease is “remained stable”. Also, on proteinase K, the “stability to fungal proteinase K” value is recorded as “remained stable”. Further, the “MBC S. aureus USA300” value against S. aureus USA300 [1] (USA300) worked out at 12.5 µM (≈ 15.9 µg/mL). Further, the “MIC S. aureus USA300” value in the data set with S. aureus USA300 [2] (USA300) was found to be 3.1 µM (≈ 3.94 µg/mL). Moreover, the “MIC B. subtilis 168” value with B. subtilis 168 was determined as 3.1 µM (≈ 3.94 µg/mL). The “MIC E. coli K12” value with E. coli K12 and against E. coli K12 (K12) was 6.2 µM (≈ 7.89 µg/mL) throughout. The “MIC S. epidermidis 1457” value against S. epidermidis 1457 came to 6.2 µM (≈ 7.89 µg/mL).

Turning to `CC[C@H](C)[C@H](NC(=O)[C@H](CCCCN)NC(=O)[C@H](CCCCN)NC(=O)[C@H](CC(C)C)NC(=O)[C@H](Cc1c[nH]c2ccccc12)NC(=O)[C@H](Cc1c[nH]c2ccccc12)NC(=O)[C@@H](N)Cc1c[nH]c2ccccc12)C(=O)N[C@@H](Cc1c[nH]c2ccccc12)C(N)=O` [TetraF2W-KK, WWWLKKIW] (H-WWWLKKIW-NH2; N-terminus and C-terminus assumed), the “MIC Candida tropicalis” value against C. tropicalis ATCC 13803 is 1.6 µM (≈ 1.99 µg/mL). Also, in the data set with C. glabrata ATCC 2001, the “MIC Candida glabrata” value lay within 6.2 to 12.5 µM. Further, the “MBC S. aureus USA300” value against S. aureus USA300 [1] and with S. aureus USA300 [1] (USA300) was over 25 µM throughout. The “Antimicrobial activity (MIC) UAMS-1” value with S. aureus UAMS-1 was determined as 6.2 µM. Also, the “Antimicrobial activity (MIC) Mu50” value with S. aureus Mu50 turned out to be 6.2 µM. In the data set with S. aureus USA300 [2] (USA300), the “Antimicrobial activity (MIC) 150 mM NaCl” value fell in the range of 3.1 to 6.2 µM. Also, the “Antimicrobial activity (MIC) USA300” value with S. aureus USA300 [2] (USA300) was 3.1 to 6.2 µM. For the same compound, the “MIC S. aureus USA300” value against S. aureus USA300 [2] (USA300) lay within 3.1 to 6.2 µM. In the data set on S. aureus USA300 [2] (USA300, pH 6.8), the “Antimicrobial activity (MIC) pH 6.8” value worked out at 12.5 μM. Moreover, in the data set with S. aureus USA300 [2] (USA300, pH 7.4), the “Antimicrobial activity (MIC) Normal medium (pH 7.4)” value was 3.1-6.2 μM. Moreover, the “Antimicrobial activity (MIC) pH 8” value in the data set with S. aureus USA300 [2] (USA300, pH 8) worked out at 3.1 μM. Moreover, the “Antimicrobial activity (MIC) Newman” value in the data set with S. aureus Newman amounted to 6.2 µM. The “MIC Candida albicans” value in data set [3] was found to be 6.2 µM (≈ 7.72 µg/mL). Further, the CC50 at 1 hour in “MTS cytotoxicity assay [4]” was 70 µM; in the data set “MTS cytotoxicity assay [5]” (HEK293 cells) it was 50 µM; in “MTS cytotoxicity assay [5]” (HaCaT cells), 50 µM; in the data set “Hemolytic assay” (chicken, read-out: LC50 Chicken RBCs), 50 µM; in the data set “Hemolytic assay” (human, read-out: LC50 Human RBCs), 40 µM; in the data set “Hemolytic assay” (pig, read-out: LC50 Porcine RBCs), 55 µM. For the same compound, the “MIC B. subtilis 168” value in the data set on B. subtilis 168 came to 6.2 µM (≈ 7.72 µg/mL). For the same compound, the “MIC E. coli K12” value in the data set on E. coli K12 (K12) was in the range of 12.5 to 25 µM. Moreover, in the data set on S. epidermidis 1457, the “MIC S. epidermidis 1457” value is 6.2 µM (≈ 7.72 µg/mL). Moreover, the “propidium iodide fluorescence change after treatment” value with S. aureus USA300 [6] is given as “least potent”.
